The record followed here is publication PMC9490236, “Accurate de novo design of membrane-traversing macrocycles” (Cell, 2022).

The conditions of data set [1]: PAMPA.
A further data set can be described thus: in vitro. The settings on record: PAMPA, PAMPA_Papp_Avg.

SMILES strings stand for the structures. Where a SMILES comes first, the peptide text is derived from it. [ ]: non-standard residue; d: D form. NMeF = CN[C@@H](Cc1ccccc1)C(=O)O; dNMeF = CN[C@H](Cc1ccccc1)C(=O)O; NMeL = CN[C@@H](CC(C)C)C(=O)O; dNMeL = CN[C@H](CC(C)C)C(=O)O; dNMeV = CN[C@@H](C(=O)O)C(C)C; NMeV = CN[C@H](C(=O)O)C(C)C; NMeA = CN[C@@H](C)C(=O)O; dNMeA = CN[C@H](C)C(=O)O

For the compound `CC(C)C[C@H]1NC(=O)[C@H]2CCCN2C(=O)[C@H](CC(C)C)N(C)C(=O)[C@@H](C)N(C)C(=O)[C@@H](Cc2ccccc2)NC(=O)[C@@H](C(C)C)NC(=O)[C@H]2CCCN2C(=O)[C@@H](CC(C)C)NC1=O` [Design D8.19, DPHE *DALA *LEU DPRO DLEU DLEU DPRO DVAL] (cyclo([NMeL][dP][dL][dL][dP][dV][dF][dNMeA])), in data set [1], the PAMPA_R1 stood at 3.45E-06 and the PAMPA_R3 was found to be 2.33E-06. For the same compound, the apparent permeability coefficient (Papp) in the data set “in vitro” came out at 2.88 ×10⁻⁶ cm/s.

In data set [1], `CC[C@@H](C)[C@H]1NC(=O)[C@H]2CCCN2C(=O)[C@@H](C)NC(=O)[C@@H](CC(C)C)N(C)C(=O)[C@H]([C@@H](C)CC)NC(=O)[C@@H](C(C)C)NC(=O)[C@@H](CC(C)C)N(C)C(=O)[C@@H]2CCCN2C(=O)[C@@H]2CCCN2C1=O` [Design D9.26, DPRO DILE PRO PRO *DLEU DVAL ILE *DLEU DALA] (cyclo(I[dNMeL][dA][dP][dI]PP[dNMeL][dV])) gave a PAMPA_R1 of 2.58E-06 and a PAMPA_R3 of 2.23E-06. In “in vitro”, this compound displayed a Papp of 2.32 ×10⁻⁶ cm/s.

In the case of `CC(C)C[C@H]1NC(=O)[C@@H]2CCCN2C(=O)[C@@H]2CCCN2C(=O)[C@@H](C)NC(=O)[C@@H](Cc2ccccc2)N(C)C(=O)[C@H]2CCCN2C1=O` [Design D6.4, DPRO *DPHE DALA PRO PRO DLEU] (cyclo(PP[dL][dP][dNMeF][dA])), in data set [1], the PAMPA_R1 is 1.85e-05 cm/s and the PAMPA_R3 was 1.58e-05 cm/s. In addition, the apparent permeability coefficient (Papp) in “in vitro” was found to be 13.9 ×10⁻⁶ cm/s.

In data set [1], `CC(C)C[C@@H]1C(=O)N[C@H](C)C(=O)N2CCC[C@H]2C(=O)N(C)[C@H](CC(C)C)C(=O)N[C@@H](C)C(=O)N(C)[C@@H](CC(C)C)C(=O)N(C)[C@H](C(C)C)C(=O)N[C@H](Cc2ccccc2)C(=O)N2CCC[C@@H]2C(=O)N2CCC[C@H]2C(=O)N1C` [Design D10.18, DPRO PRO *DLEU DALA PRO *DLEU ALA *LEU *DVAL DPHE] (cyclo([dNMeL][dA]P[dNMeL]A[NMeL][dNMeV][dF][dP]P)) had a PAMPA_R1 of 9.23E-08 and a PAMPA_R3 of 1.49E-07. Also, the Papp in “in vitro” came to 0.0948 ×10⁻⁶ cm/s.

As to `CC(C)C[C@@H]1C(=O)N[C@H](C)C(=O)N[C@@H](C(C)C)C(=O)N2CCC[C@@H]2C(=O)N[C@H](C(C)C)C(=O)N2CCC[C@@H]2C(=O)N2CCC[C@H]2C(=O)N[C@H](C)C(=O)N(C)[C@H](CC(C)C)C(=O)N1C` [Design D9.29, DVAL DPRO PRO DALA *DLEU *DLEU DALA VAL DPRO] (cyclo([dA][dNMeL][dNMeL][dA]V[dP][dV][dP]P)), in data set [1], the PAMPA_R1 amounted to 1.96E-06 and the PAMPA_R3 was 1.19E-06. The apparent permeability (Papp) in “in vitro” was 1.51 ×10⁻⁶ cm/s.

Regarding `CC(C)C[C@@H]1C(=O)N[C@H](C)C(=O)N(C)[C@H](CC(C)C)C(=O)N2CCC[C@@H]2C(=O)N[C@H](CC(C)C)C(=O)N[C@@H](C)C(=O)N[C@H](CC(C)C)C(=O)N2CCC[C@@H]2C(=O)N1C` [Design D8.25, DLEU DPRO *DLEU DALA *DLEU DPRO DLEU ALA] (cyclo(A[dL][dP][dNMeL][dA][dNMeL][dP][dL])), in data set [1], the PAMPA_R1 is listed as 7.42E-07 and the PAMPA_R3 is given as 9.32E-07. Moreover, in the data set “in vitro”, the Papp came out at 0.824 ×10⁻⁶ cm/s.

In data set [1], `CC(C)C[C@@H]1NC(=O)[C@@H](Cc2ccccc2)NC(=O)[C@@H](CC(C)C)N(C)C(=O)[C@@H]2CCCN2C(=O)[C@H](C)NC(=O)[C@@H](CC(C)C)N(C)C(=O)[C@@H]2CCCN2C(=O)[C@H](CC(C)C)N(C)C(=O)[C@H](CC(C)C)N(C)C(=O)[C@H](C(C)C)NC1=O` [Design D10.20, PRO *DLEU ALA PRO *DLEU DPHE LEU VAL *LEU *LEU] (cyclo(AP[dNMeL][dF]LV[NMeL][NMeL]P[dNMeL])) showed a PAMPA_R1 of 1.95E-06 and a PAMPA_R3 of 3.37E-06. Besides, in the data set “in vitro”, the Papp was 2.59 ×10⁻⁶ cm/s.

`CC(C)C[C@H]1C(=O)N2CCC[C@@H]2C(=O)N[C@@H](Cc2ccccc2)C(=O)N2CCC[C@H]2C(=O)N[C@H](C(C)C)C(=O)N[C@H](Cc2ccccc2)C(=O)N1C` (single isomer, unassigned) [Design D6.9.p1, DVAL DPHE *LEU DPRO PHE PRO]: in data set [1], the PAMPA_R1 was 4.01e-06 cm/s and the PAMPA_R3 is 6.97e-06 cm/s. The compound further gave a Papp in the data set “in vitro” of 5.29 ×10⁻⁶ cm/s.

In data set [1], `CC(C)C[C@@H]1NC(=O)[C@@H](Cc2ccccc2)N(C)C(=O)[C@H](C(C)C)NC(=O)[C@H](C)NC(=O)[C@@H](C)NC(=O)[C@@H](Cc2ccccc2)N(C)C(=O)[C@@H]2CCCN2C(=O)[C@H](C(C)C)NC(=O)[C@@H]2CCCN2C(=O)[C@@H](C)NC1=O` [Design D10.48, DALA PRO VAL PRO *DPHE DALA ALA VAL *DPHE LEU] (cyclo(AV[dNMeF]L[dA]PVP[dNMeF][dA])) yielded a PAMPA_R1 of 3.54E-07 and a PAMPA_R3 of 4.59E-07. Moreover, in “in vitro”, the apparent permeability (Papp) worked out at 0.405 ×10⁻⁶ cm/s.

In data set [1], `CC[C@@H](C)[C@H]1NC(=O)[C@H](Cc2ccccc2)N(C)C(=O)[C@@H](CC(C)C)N(C)C(=O)[C@H](C(C)C)NC(=O)[C@H](C)NC(=O)[C@@H]2CCCN2C(=O)[C@H](CC(C)C)N(C)C(=O)[C@@H](Cc2ccccc2)N(C)C(=O)[C@H](C)N(C)C(=O)[C@H](C)N(C)C1=O` [Design D10.56, *DPHE *LEU PRO ALA VAL *DLEU *PHE DILE *ALA *ALA] (cyclo(AV[dNMeL][NMeF][dI][NMeA][NMeA][dNMeF][NMeL]P)) came in with a PAMPA_R1 of 9.15E-06 and a PAMPA_R3 of 8.95E-06. This compound yielded an apparent permeability (Papp) in the data set “in vitro” of 9.02 ×10⁻⁶ cm/s.

For the compound `CC(C)C[C@@H]1C(=O)N[C@@H](C(C)C)C(=O)N[C@@H](C)C(=O)N2CCC[C@H]2C(=O)N2CCC[C@@H]2C(=O)N[C@@H](C(C)C)C(=O)N[C@@H](C)C(=O)N(C)[C@@H](CC(C)C)C(=O)N1C` [Design D8.22, ALA PRO DPRO VAL ALA *LEU *DLEU VAL] (cyclo(A[NMeL][dNMeL]VAP[dP]V)), in data set [1], the PAMPA_R1 was 2.34E-07 and the PAMPA_R3 was 1.57E-07. For the same compound, in the data set “in vitro”, the apparent permeability (Papp) worked out at 0.215 ×10⁻⁶ cm/s.

In data set [1], `CC(C)C[C@H]1NC(=O)[C@@H]2CCCN2C(=O)[C@H]2CCCN2C(=O)[C@H](C(C)C)NC(=O)[C@@H](CC(C)C)NC(=O)[C@@H]2CCCN2C(=O)[C@H]2CCCN2C(=O)[C@H](C(C)C)NC1=O` (single isomer, unassigned) [D8.12 p1, DLEU VAL DPRO PRO DLEU VAL DPRO PRO] returned a PAMPA_R1 of 1.52E-07 and a PAMPA_R3 of 1.92E-07. Also, the apparent permeability (Papp) in “in vitro” was 0.169 ×10⁻⁶ cm/s.

As for `CC[C@H](C)[C@@H]1NC(=O)[C@H](C(C)C)N(C)C(=O)[C@H]2CCCN2C(=O)[C@H]([C@@H](C)CC)NC(=O)[C@@H](CC(C)C)N(C)C(=O)[C@@H](C)NC(=O)[C@@H]2CCCN2C(=O)[C@H]2CCCN2C(=O)[C@H](CC(C)C)NC(=O)[C@@H](Cc2ccccc2)NC(=O)[C@H](CC(C)C)NC(=O)[C@H]2CCCN2C1=O` [Design D12.3, DPRO *VAL ILE DPRO LEU DPHE LEU DPRO PRO DALA *DLEU ILE] (cyclo([dA][dNMeL]I[dP][NMeV]I[dP]L[dF]L[dP]P)), in data set [1], the PAMPA_R1 is on record as 7.65E-07 and the PAMPA_R3 is recorded as 9.01E-07. In the data set “in vitro”, this compound displayed an apparent permeability (Papp) of 0.789 ×10⁻⁶ cm/s.

In data set [1], `CC[C@H](C)[C@@H]1NC(=O)CNC(=O)[C@@H]2CCCN2C(=O)[C@H]2CCCN2C(=O)[C@H]([C@@H](C)CC)NC(=O)[C@@H](C)N(C)C(=O)[C@@H]2CCCN2C(=O)[C@H](C(C)C)NC(=O)[C@@H](CC(C)C)NC1=O` [Design D9.33, DPRO PRO GLY ILE DLEU VAL PRO *DALA ILE] (cyclo(GI[dL]VP[dNMeA]I[dP]P)) came in with a PAMPA_R1 of 2.73E-07 and a PAMPA_R3 of 4.74E-07. Further, the apparent permeability coefficient (Papp) in “in vitro” came out at 0.317 ×10⁻⁶ cm/s.

In data set [1], `CC(C)C[C@@H]1NC(=O)[C@@H](CC(C)C)N(C)C(=O)[C@@H](CC(C)C)N(C)C(=O)[C@@H](CC(C)C)N(C)C(=O)[C@H](CC(C)C)NC(=O)[C@@H]2CCCN2C(=O)[C@H]2CCCN2C(=O)[C@H](Cc2ccccc2)NC1=O` [Design D8.7, PHE DPRO PRO LEU *DLEU *DLEU *DLEU LEU] (cyclo(L[dNMeL][dNMeL][dNMeL]LF[dP]P)) yielded a PAMPA_R1 of 1.94E-06 and a PAMPA_R3 of 8.74E-07. In the data set “in vitro”, this compound came in with an apparent permeability coefficient (Papp) of 1.27 ×10⁻⁶ cm/s.

For the compound `CC[C@@H](C)[C@H]1NC(=O)[C@@H](Cc2ccccc2)NC(=O)[C@@H]2CCCN2C(=O)[C@@H]([C@H](C)CC)NC(=O)[C@@H](Cc2ccccc2)NC(=O)[C@@H]2CCCN2C1=O` [Design D6.1, DILE PRO DPHE DILE PRO DPHE] (cyclo(P[dF][dI]P[dF][dI])), in data set [1], the PAMPA_R1 was 3.78e-06 cm/s and the PAMPA_R3 amounted to 3.92e-06 cm/s. The same compound returned a Papp in “in vitro” of 3.34 ×10⁻⁶ cm/s.

In data set [1], `CC(C)C[C@@H]1C(=O)N[C@H](Cc2ccccc2)C(=O)N2CCC[C@@H]2C(=O)N2CCC[C@@H]2C(=O)N2CCC[C@H]2C(=O)N[C@H](C(C)C)C(=O)N(C)[C@@H](C)C(=O)N(C)[C@@H](C)C(=O)N(C)[C@H](CC(C)C)C(=O)N1C` [Design D9.25, DVAL *ALA *ALA *DLEU *DLEU DPHE DPRO DPRO PRO] (cyclo([dV][NMeA][NMeA][dNMeL][dNMeL][dF][dP][dP]P)) gave a PAMPA_R1 of 2.32E-06 and a PAMPA_R3 of 1.52E-06. For the same compound, in “in vitro”, the apparent permeability coefficient (Papp) turned out to be 2.19 ×10⁻⁶ cm/s.

As to `CC[C@H](C)[C@@H]1NC(=O)[C@@H]2CCCN2C(=O)[C@H](C)NC(=O)[C@@H](Cc2ccccc2)N(C)C(=O)[C@H](C)NC(=O)[C@@H]2CCCN2C(=O)[C@@H](Cc2ccccc2)N(C)C(=O)[C@H](Cc2ccccc2)N(C)C(=O)[C@H](CC(C)C)N(C)C(=O)[C@@H](C(C)C)NC1=O` [Design D10.52, ILE DVAL *LEU *PHE *DPHE PRO ALA *DPHE ALA PRO] (cyclo(API[dV][NMeL][NMeF][dNMeF]PA[dNMeF])), in data set [1], the PAMPA_Papp_Avg entry was “BQL”, the PAMPA_R1 entry was “BQL” and the PAMPA_R3 entry is on record as “BQL”.

In the case of `CC[C@@H](C)[C@H]1NC(=O)[C@@H](CC(C)C)N(C)C(=O)[C@H](CC(C)C)NC(=O)[C@@H](C(C)C)NC(=O)[C@@H]2CCCN2C(=O)[C@H]2CCCN2C(=O)[C@@H]([C@H](C)CC)NC(=O)[C@@H](C)N(C)C(=O)[C@@H]([C@H](C)CC)NC(=O)[C@H](Cc2ccccc2)N(C)C(=O)[C@H]2CCCN2C(=O)[C@@H](Cc2ccccc2)NC1=O` [Design D12.7, DPHE DPRO *PHE DILE *DALA DILE DPRO PRO DVAL LEU *DLEU DILE] (cyclo([dV]L[dNMeL][dI][dF][dP][NMeF][dI][dNMeA][dI][dP]P)), in data set [1], the PAMPA_Papp_Avg result is given as “BQL”, the PAMPA_R1 result is recorded as “BQL” and the PAMPA_R3 result is “BQL”.
